Assay results published in patent US10858356B2, “Pyrazolopyridine derivative having GLP-1 receptor agonist effect” (Chugai Seiyaku Kabushiki Kaisha, priority 2016, dated 2020).

Molecular target: human GLP1R (Homo sapiens (Human), UniProt P43220)
Assay: In vitro cAMP signal activation in human GLP1R stably-expressing cell line (hGLP1R-HEK293)
Assay type: cell-based
Conditions: cAMP concentration in hGLP1R-HEK293; 100% = 1 nM human GLP-1 (7-37)

human GLP1R, sequence (P43220 24-463): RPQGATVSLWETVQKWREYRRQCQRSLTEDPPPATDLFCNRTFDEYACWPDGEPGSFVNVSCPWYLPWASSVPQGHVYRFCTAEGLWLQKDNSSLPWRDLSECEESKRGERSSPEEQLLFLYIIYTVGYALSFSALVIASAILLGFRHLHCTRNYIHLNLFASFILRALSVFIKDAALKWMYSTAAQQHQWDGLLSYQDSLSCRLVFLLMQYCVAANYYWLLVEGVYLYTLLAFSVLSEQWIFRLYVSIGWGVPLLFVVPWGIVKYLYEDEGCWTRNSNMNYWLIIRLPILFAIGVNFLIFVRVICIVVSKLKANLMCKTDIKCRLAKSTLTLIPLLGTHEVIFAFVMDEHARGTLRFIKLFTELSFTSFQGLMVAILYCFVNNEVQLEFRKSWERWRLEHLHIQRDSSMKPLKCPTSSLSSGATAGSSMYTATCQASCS

Compound | EC50 [nM]
Cc1cc(-n2nc3c(c2-n2ccn(-c4ccc5c(cnn5[C@@H]5CCOC5)c4)c2=O)[C@H](C)N(C(=O)c2cc4cc(C5CCOCC5)cc(F)c4n2[C@@]2(c4noc(=O)[nH]4)C[C@@H]2C)CC3)cc(C)c1F [compound 64] | 2
Cc1cc(-n2nc3c(c2-n2ccn(-c4ccc5c(cnn5C)c4F)c2=O)[C@H](C)N(C(=O)c2cc4cc([C@H]5CCOC(C)(C)C5)ccc4n2[C@@]2(c4noc(=O)[nH]4)C[C@@H]2C)CC3)cc(C)c1Cl [compound 65, 3-[(1S,2S)-1-[2-[(4S)-2-(4-chloro-3,5-dimethylphenyl)-3-[3-(4-fluoro-1-methylindazol-5-yl)-2-oxoimidazol-1-yl]-4-methyl-6,7-dihydro-4H-pyrazolo[4,3-c]pyridine-5-carbonyl]-5-[(4S)-2,2-dimethyloxan-4-yl]indol-1-yl]-2-methylcyclopropyl]-4H-1,2,4-oxadiazol-5-one] | 3.5
Cc1cc(-n2nc3c(c2-n2ccn(-c4ccc5c(cnn5C)c4)c2=O)[C@H](C)N(C(=O)c2cc4cc([C@H]5CCOC(C)(C)C5)ccc4n2[C@@]2(c4noc(=O)[nH]4)C[C@@H]2C)CC3)cc(C)c1F [compound 66, 3-[(1S,2S)-1-[5-[(4S)-2,2-dimethyloxan-4-yl]-2-[(4S)-2-(4-fluoro-3,5-dimethylphenyl)-4-methyl-3-[3-(1-methylindazol-5-yl)-2-oxoimidazol-1-yl]-6,7-dihydro-4H-pyrazolo[4,3-c]pyridine-5-carbonyl]indol-1-yl]-2-methylcyclopropyl]-4H-1,2,4-oxadiazol-5-one] | 0.81
Cc1cc(-n2nc3c(c2-n2ccn(-c4ccc5c(cnn5C)c4Cl)c2=O)[C@H](C)N(C(=O)c2cc4cc([C@H]5CCOC(C)(C)C5)ccc4n2[C@@]2(c4noc(=O)[nH]4)C[C@@H]2C)CC3)cc(C)c1F [compound 68, 3-[(1S,2S)-1-[2-[(4S)-3-[3-(4-chloro-1-methylindazol-5-yl)-2-oxoimidazol-1-yl]-2-(4-fluoro-3,5-dimethylphenyl)-4-methyl-6,7-dihydro-4H-pyrazolo[4,3-c]pyridine-5-carbonyl]-5-[(4S)-2,2-dimethyloxan-4-yl]indol-1-yl]-2-methylcyclopropyl]-4H-1,2,4-oxadiazol-5-one] | 1.8
Cc1cc(-n2nc3c(c2-n2ccn(-c4ccc5c(cnn5C)c4F)c2=O)[C@H](C)N(C(=O)c2cc4cc([C@H]5CCOC(C)(C)C5)ccc4n2[C@@]2(c4noc(=O)[nH]4)C[C@@H]2C)CC3)ccc1F [compound 69, 3-[(1S,2S)-1-[5-[(4S)-2,2-dimethyloxan-4-yl]-2-[(4S)-3-[3-(4-fluoro-1-methylindazol-5-yl)-2-oxoimidazol-1-yl]-2-(4-fluoro-3-methylphenyl)-4-methyl-6,7-dihydro-4H-pyrazolo[4,3-c]pyridine-5-carbonyl]indol-1-yl]-2-methylcyclopropyl]-4H-1,2,4-oxadiazol-5-one] | 2.8
Cc1cc(-n2nc3c(c2-n2ccn(-c4cc5cnn(C)c5cc4F)c2=O)[C@H](C)N(C(=O)c2cc4cc([C@H]5CCOC(C)(C)C5)ccc4n2[C@@]2(c4noc(=O)[nH]4)C[C@@H]2C)CC3)cc(C)c1F [compound 70] | 1.5
COCCn1ncc2cc(-n3ccn(-c4c5c(nn4-c4cc(C)c(F)c(C)c4)CCN(C(=O)c4cc6cc([C@H]7CCOC(C)(C)C7)ccc6n4[C@@]4(c6noc(=O)[nH]6)C[C@@H]4C)[C@H]5C)c3=O)c(F)cc21 [compound 71, 3-[(1S,2S)-1-[5-[(4S)-2,2-dimethyloxan-4-yl]-2-[(4S)-2-(4-fluoro-3,5-dimethylphenyl)-3-[3-[6-fluoro-1-(2-methoxyethyl)indazol-5-yl]-2-oxoimidazol-1-yl]-4-methyl-6,7-dihydro-4H-pyrazolo[4,3-c]pyridine-5-carbonyl]indol-1-yl]-2-methylcyclopropyl]-4H-1,2,4-oxadiazol-5-one] | 1.3
Cc1cc(-n2nc3c(c2-n2ccn(-c4ccc5c(cnn5C)c4Cl)c2=O)[C@H](C)N(C(=O)c2cc4cc(C5CCOCC5)ccc4n2[C@@]2(c4noc(=O)[nH]4)C[C@@H]2C)CC3)cc(C)c1F [compound 72, 3-[(1S,2S)-1-[2-[(4S)-3-[3-(4-chloro-1-methylindazol-5-yl)-2-oxoimidazol-1-yl]-2-(4-fluoro-3,5-dimethylphenyl)-4-methyl-6,7-dihydro-4H-pyrazolo[4,3-c]pyridine-5-carbonyl]-5-(oxan-4-y)indol-1-yl]-2-methylcyclopropyl]-4H-1,2,4-oxadiazol-5-one] | 2.3
CCc1nccc(-c2ccc3c(c2)cc(C(=O)N2CCc4nn(-c5cc(C)c(F)c(C)c5)c(-n5ccn(-c6ccc7c(cnn7C)c6)c5=O)c4[C@@H]2C)n3[C@@]2(c3noc(=O)[nH]3)C[C@@H]2C)c1C [compound 73, 3-[(1S,2S)-1-[5-(2-ethyl-3-methylpyridin-4-yl)-2-[(4S)-2-(4-fluoro-3,5-dimethylphenyl)-4-methyl-3-[3-(1-methylindazol-5-yl)-2-oxoimidazol-1-yl]-6,7-dihydro-4H-pyrazolo[4,3-c]pyridine-5-carbonyl]indol-1-yl]-2-methylcyclopropyl]-4H-1,2,4-oxadiazol-5-one] | 2.5

Now from value to compound:

EC50 [nM] | Compound
6.2 | COc1nccc(-c2cc3cc(C(=O)N4CCc5nn(-c6cc(C)c(F)c(C)c6)c(-n6ccn(-c7ccc8c(cnn8C)c7)c6=O)c5[C@@H]4C)n([C@@]4(c5noc(=O)[nH]5)C[C@@H]4C)c3cc2F)c1C [compound 74, 3-[(1S,2S)-1-[6-Fluoro-2-[(4S)-2-(4-fluoro-3,5-dimethylphenyl)-4-methyl-3-[3-(1-methylindazol-5-yl)-2-oxoimidazol-1-yl]-6,7-dihydro-4H-pyrazolo[4,3-c]pyridine-5-carbonyl]-5-(2-methoxy-3-methylpyridin-4-yl)indol-1-yl]-2-methylcyclopropyl]-4H-1,2,4-oxadiazol-5-one]
6.2 | Cc1cc(-n2nc3c(c2-n2ccn(-c4ccc5c(cnn5C)c4)c2=O)CN(C(=O)c2cc4cc(C5CCOC6(CCCC6)C5)ccc4n2[C@@]2(c4noc(=O)[nH]4)C[C@@H]2C)CC3)cc(C)c1F (stereo partly drawn) [compound 75, 3-[(1S,2S)-1-[2-[2-(4-fluoro-3,5-dimethylphenyl)-3-[3-(1-methylindazol-5-yl)-2-oxoimidazol-1-yl]-6,7-dihydro-4H-pyrazolo[4,3-c]pyridine-5-carbonyl]-5-(6-oxaspiro[4.5]decan-9-yl)indol-1-yl]-2-methylcyclopropyl]-4H-1,2,4-oxadiazol-5-one]
2.4 | COCCn1ncc2cc(-n3ccn(-c4c5c(nn4-c4cc(C)c(F)c(C)c4)CCN(C(=O)c4cc6cc(C7CCOC(C)(C)C7)ccc6n4[C@@]4(c6noc(=O)[nH]6)C[C@@H]4C)C5)c3=O)ccc21 (stereo partly drawn) [compound 76, 3-[(1S,2S)-1-[5-(2,2-dimethyloxan-4-yl)-2-[2-(4-fluoro-3,5-dimethylphenyl)-3-[3-[1-(2-methoxyethyl)indazol-5-yl]-2-oxoimidazol-1-yl]-6,7-dihydro-4H-pyrazolo[4,3-c]pyridine-5-carbonyl]indol-1-yl]-2-methylcyclopropyl]-4H-1,2,4-oxadiazol-5-one]
1.4 | CC[C@H]1C[C@@H](c2ccc3c(c2)cc(C(=O)N2CCc4nn(-c5cc(C)c(F)c(C)c5)c(-n5ccn(-c6ccc7c(cnn7C)c6)c5=O)c4C2)n3[C@@]2(c3noc(=O)[nH]3)C[C@@H]2C)CCO1 [compound 77]
3.6 | CC[C@H]1C[C@]1(c1noc(=O)[nH]1)n1c(C(=O)N2CCc3nn(-c4cc(C)c(F)c(C)c4)c(-n4ccn(-c5ccc6c(cnn6C)c5)c4=O)c3C2)cc2cc(C3CCOCC3)ccc21 [compound 78, 3-[(1S,2S)-2-Ethyl-1-[2-[2-(4-fluoro-3,5-dimethylphenyl)-3-[3-(1-methylindazol-5-yl)-2-oxoimidazol-1-yl]-6,7-dihydro-4H-pyrazolo[4,3-c]pyridine-5-carbonyl]-5-(oxan-4-yl)indol-1-yl]cyclopropyl]-4H-1,2,4-oxadiazol-5-one]
2.4 | Cc1cc(-n2nc3c(c2-n2ccn(-c4ccc5c(cnn5C)c4)c2=O)CN(C(=O)c2cc4cc(C5CCOCC5)ccc4n2[C@@]2(c4noc(=O)[nH]4)C[C@@H]2CO)CC3)cc(C)c1F [compound 79, 3-[(1S,2S)-1-[2-[2-(4-fluoro-3,5-dimethylphenyl)-3-[3-(1-methylindazol-5-yl)-2-oxoimidazol-1-yl]-6,7-dihydro-4H-pyrazolo[4,3-c]pyridine-5-carbonyl]-5-(oxan-4-yl)indol-1-yl]-2-(hydroxymethyl)cyclopropyl]-4H-1,2,4-oxadiazol-5-one]
2.4 | Cc1cc(-n2nc3c(c2-n2ccn(-c4ccc5c(cnn5C)c4)c2=O)[C@H](C)N(C(=O)c2cc4cc(C5CCOCC5)ccc4n2[C@@]2(c4noc(=O)[nH]4)C[C@@H]2C)[C@H](C)C3)cc(C)c1F [compound 80, 3-[(1S,2S)-1-[2-[(4S,6R)-2-(4-fluoro-3,5-dimethylphenyl)-4,6-dimethyl-3-[3-(1-methylindazol-5-yl)-2-oxoimidazol-1-yl]-6,7-dihydro-4H-pyrazolo[4,3-c]pyridine-5-carbonyl]-5-(oxan-4-yl)indol-1-yl]-2-methylcyclopropyl]-4H-1,2,4-oxadiazol-5-one]
